Several values for one entry are separate records, joined by “and”; a condition that tells them apart may be missing. Equal entries are not always repeated.
Legend:
[1] = molecular target: T1, Human P2Y1-R (Homo sapiens, UniProt P47900); test: Gαq protein activation BRET2 assay (Gαq-RLuc8/GFP2-Gγ2/Gβ1) in HEK293T cells expressing P2Y1-R; format: cell-based; parameters: ADP-modulated BRET / MRS2179-modulated BRET: unit not given here; conditions: for G protein signaling, Ligand-modulated BRET (% of maximum MRS2179 mean value): Figure 4a, individual replicates; for EC50 / pEC50 ± s.e.m. / Emax ± s.e.m.: G protein signaling, Fig. 4a; for Emax ± s.e.m.: normalized to the mean value of maximal MRS2179 response, in %; for Behaviour on P2Y1-R-dependent constitutive Gαq protein activation: HEK293T cells
T1 construct: expressed in transfected cells; host or cells: HEK293T/17
Source text: As previously described, using a BRET^2 (bioluminescence resonance energy transfer)-based assay, we directly monitored the basal Gαq protein activation by measuring the interaction between Gαq and Gγ2 subunits of the Gαqβ1γ2 heterotrimer complex. Indeed, this assay is based on the non-radiative transfer between the Renilla reniformis luciferase (RLuc8) energy donor fused to the Gαq protein subunit and the fluorescent GFP2 energy acceptor fused to Gγ2 protein subunit (Fig. 1a). […] By contrast, ligand-independent constitutive receptor activation or agonist-induced receptor activation will promote Gαq/Gγ2 subunit dissociation, thereby leading to a decrease of the basal BRET signal (Fig. 1a). […] To preclude any P2Y1-R activation by a passive release of ADP by HEK293T cells, we performed similar experiments in the presence of high concentration of apyrase (0.2U/mL) to degrade any trace of ADP in the medium (Additional File 2: Fig. S2a). Under these conditions, P2Y1-R expression still induces a marked and significant decrease of the basal BRET signal compared to control cells (pcDNA3.1), thereby supporting a P2Y1-R-dependent constitutive activation of Gαq protein. […] Of note, because P2Y1-R and AT1-R were respectively Myc- and HA-tagged and were thus detected using different primary antibodies, their expression at the cell surface cannot be compared between each other’s.
Human P2Y1-R (NCBI Reference Sequence: NM_002563.2) and P2Y12-R (NCBI Reference Sequence: NM_022788.3) were fused to double Myc epitope and rat AT1-R (NCBI Reference Sequence: NM_030985.4) to HA tag in N-terminus extracellular region. Alternatively, receptors were also fused to Venus tag in C-terminus intracellular region. Plasmids encoding Gαq-RLuc8, GFP2-Gγ2 and untagged Gβ1 were previously described. ADP was purchased from Sigma-Aldrich/Merck (Darmstadt, Germany). […] The Gq inhibitor (FR900359) was kindly supplied by Evi Kostenis (University of Bonn. Germany).
G protein activation and β-arrestin 2 recruitment were performed as previously described. Briefly, vectors encoding receptors, Gαq-RLuc8, GFP2-Gγ2, Gβ1, or β-arrestin 2 were transiently cotransfected into HEK293T/17 cells as indicated in the figure legends. Forty-eight hours after transfection, cells were washed and resuspended in PBS containing 0.1% (w/v) glucose at room temperature and then distributed (80 μg proteins/well) in a 96-well microplate (PerkinElmer). For G protein activation experiments (BRET^2), cells were incubated in the absence (basal BRET signal) or in the presence of ligand for 1 minute. BRET signal between RLuc8 and GFP2 was measured after addition of the luciferase substrate coelenterazine 400a (5 μM). For β-arrestin 2 recruitment (BRET^1), cells were stimulated with ligands for 5 or 15 min. BRET signal was recorded after incubation with coelenterazine h (5 μM) for 8 min. For kinetics studies, BRET signal between RLuc and Venus was recorded at 20-s intervals at basal state for the 2 first minutes and then for 5 min after ligand injection. For saturation curves (BRET^1), the expression level of Venus- or RLuc-tagged protein was determined by direct measurement of total fluorescence and luminescence respectively. Total fluorescence was first measured with an excitation filter at 485 nm and an emission filter at 520 nm. Then, the same sample was incubated for 8 minutes with 5 μM coelenterazine h and the total luminescence was measured. BRET^2 and BRET^1 readings were collected using a modified Infinite F500 (Tecan Group Ltd). The BRET^2 signal was calculated by the ratio of emission of GFP2 (510–540 nm) to RLuc8 (370–450 nm) and the BRET^1 signal by the ratio of emission of Venus (520–570 nm) to RLuc (370–480 nm). […]

[2] = test system: washed human platelets (P2Y1-R/Gαq signaling); test: IP1 accumulation assay (HTRF) in washed human platelets; format: cell-based; conditions: washed human platelets, ADP 100 μM, antagonists 10 μM, Gq inhibitor 100 nM, 2 h, apyrase 0.02 U/mL, result in words
Method: As performed in HEK293T cells, we thus quantified intracellular IP1 levels to monitor Gαq protein-dependent signaling pathways.
Human platelets were prepared from adult healthy volunteers free of antiplatelet or anti-inflammatory medication since at least ten days. […] After two steps of centrifugation and suspension in Tyrode’s buffer (140 mM NaCl, 5 mM KCl, 5 mM KH2PO4, 1 mM MgSO4, 10 mM HEPES, 5 mM glucose and 0.35% (w/v) BSA, pH 6,7), washed platelets were suspended in the same buffer adjusted to pH 7.4 and containing 1 mM CaCl2. The final platelet suspension was adjusted to 3.10^8 platelets/mL and rested for 45 min in the presence of 0.02 U/mL apyrase and 10 μM indomethacin at 37 °C prior experiments. PGI2 (0.5 μM) was added before centrifugation steps to avoid platelet activation.
Quantification of intracellular IP1 was performed using the HTRF (Homogeneous Time Resolved Fluorescence) IP1 competitive immunoassay (IP-One Tb kit. Cisbio. France) according to the manufacturer’s instructions. Briefly, 20,000 HEK293T/17 cells or 3.10^6 platelets were distributed in a 384-well white microplate (Greiner) and incubated with the indicated molecules for 30 min or 2 h at 37 °C in the presence of 50 mM of LiCl to prevent IP1 degradation. After addition of d2-labeled IP1 (acceptor) and anti-IP1-Cryptate (donor) for 1 h, the specific FRET signals were calculated by the fluorescence ratio of the acceptor and donor emission signal (665/620 nm) collected using a modified Infinite F500 (Tecan Group Ltd). Conversion of the HTRF ratio of each sample into IP1 concentrations was performed on the basis of a standard curve to determine the linear dynamic range of the assay.

T1 sequence (P47900 whole entry): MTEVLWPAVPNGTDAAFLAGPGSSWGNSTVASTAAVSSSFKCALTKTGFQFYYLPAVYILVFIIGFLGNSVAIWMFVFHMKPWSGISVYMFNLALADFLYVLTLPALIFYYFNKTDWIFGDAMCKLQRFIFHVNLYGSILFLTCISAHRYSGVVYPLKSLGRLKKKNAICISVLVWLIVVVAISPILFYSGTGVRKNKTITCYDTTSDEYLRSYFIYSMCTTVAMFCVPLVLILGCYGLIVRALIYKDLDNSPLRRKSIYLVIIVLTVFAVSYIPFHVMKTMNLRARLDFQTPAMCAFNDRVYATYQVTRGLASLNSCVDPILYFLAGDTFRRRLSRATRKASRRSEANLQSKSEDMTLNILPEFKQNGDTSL

Compound	ADP-induced change of Gαq/Gγ2 BRET signal ([1]; ADP 10 μM, 1 min, result in words)	ADP-modulated BRET ([1]; P2Y1-R, ADP 10 μM, 1 min, individual experiments)	Effect on IP1 levels [2]	G protein signaling, Ligand-modulated BRET (% of maximum MRS2179 mean value) ([1]; [Ligand] 1.00E-04 M)	G protein signaling, Ligand-modulated BRET (% of maximum MRS2179 mean value) ([1]; [Ligand] 1.00E-05 M)	G protein signaling, Ligand-modulated BRET (% of maximum MRS2179 mean value) ([1]; [Ligand] 1.00E-06 M)	G protein signaling, Ligand-modulated BRET (% of maximum MRS2179 mean value) ([1]; [Ligand] 1.00E-07 M)	G protein signaling, Ligand-modulated BRET (% of maximum MRS2179 mean value) ([1]; [Ligand] 1.00E-08 M)	G protein signaling, Ligand-modulated BRET (% of maximum MRS2179 mean value) ([1]; [Ligand] 1.00E-09 M)	G protein signaling, Ligand-modulated BRET (% of maximum MRS2179 mean value) ([1]; [Ligand] 1.00E-10 M)	EC50 ([1]; 1 min)	pEC50 ± s.e.m. ([1]; 1 min)	Emax ± s.e.m. ([1]; 1 min)	Behaviour on P2Y1-R-dependent constitutive Gαq protein activation ([1]; result in words)
Nc1ncnc2c1ncn2[C@@H]1O[C@H](COP(=O)(O)OP(=O)(O)O)[C@@H](O)[C@H]1O [ADP, adenosine diphosphate]	significant but moderate decrease of the BRET signal	-0.02511 and -0.01906 and -0.00821 and -0.04045 and -0.02327 and -0.02843	significantly increased											
CNc1nc(I)nc2c1ncn2[C@H]1C[C@H](OP(=O)(O)O)[C@]2(COP(=O)(O)O)C[C@H]12 [MRS2500, 2-iodo-N6-methyl-(N)-methanocarba-2′-deoxyadenosine-3′,5′-bisphosphate]			inverse agonist efficacy	155.404 % of maximum MRS2179 mean value and 138.849 % of maximum MRS2179 mean value and 107.119 % of maximum MRS2179 mean value and 132.185 % of maximum MRS2179 mean value and 125.72 % of maximum MRS2179 mean value and 141.754 % of maximum MRS2179 mean value	122.914 % of maximum MRS2179 mean value and 111.352 % of maximum MRS2179 mean value and 93.6281 % of maximum MRS2179 mean value and 124.36 % of maximum MRS2179 mean value and 97.7584 % of maximum MRS2179 mean value and 107.998 % of maximum MRS2179 mean value	73.5711 % of maximum MRS2179 mean value and 80.459 % of maximum MRS2179 mean value and 53.1675 % of maximum MRS2179 mean value and 68.2708 % of maximum MRS2179 mean value and 52.8113 % of maximum MRS2179 mean value and 71.2103 % of maximum MRS2179 mean value	18.6255 % of maximum MRS2179 mean value and 25.6955 % of maximum MRS2179 mean value and 14.1554 % of maximum MRS2179 mean value and 20.945 % of maximum MRS2179 mean value and 1.4 % of maximum MRS2179 mean value and 18.5955 % of maximum MRS2179 mean value	1.081 % of maximum MRS2179 mean value and -4.947 % of maximum MRS2179 mean value and -10.1975 % of maximum MRS2179 mean value and -7.982 % of maximum MRS2179 mean value and -25.6775 % of maximum MRS2179 mean value and 3.691 % of maximum MRS2179 mean value	-4.558 % of maximum MRS2179 mean value and -14.6104 % of maximum MRS2179 mean value and -16.9372 % of maximum MRS2179 mean value and -9.323 % of maximum MRS2179 mean value and -17.5921 % of maximum MRS2179 mean value and 4.08 % of maximum MRS2179 mean value	-10.8256 % of maximum MRS2179 mean value and -10.2571 % of maximum MRS2179 mean value and -9.064 % of maximum MRS2179 mean value and -13.8903 % of maximum MRS2179 mean value and -18.6423 % of maximum MRS2179 mean value and -6.511 % of maximum MRS2179 mean value	0.772 µM	6.113 ± 0.07237	127.2 ± 3.892	behaved as inverse agonists
CNc1nc(Cl)nc2c1ncn2[C@H]1CC(OP(=O)(O)O)[C@]2(COP(=O)(O)O)C[C@H]12 (stereo in doubt) [MRS2279]			inverse agonist efficacy	129.138 % of maximum MRS2179 mean value and 120.304 % of maximum MRS2179 mean value and 127.2 % of maximum MRS2179 mean value and 111.359 % of maximum MRS2179 mean value and 120.336 % of maximum MRS2179 mean value and 114.718 % of maximum MRS2179 mean value	65.0429 % of maximum MRS2179 mean value and 66.0702 % of maximum MRS2179 mean value and 71.1916 % of maximum MRS2179 mean value and 1.991 % of maximum MRS2179 mean value and 5.227 % of maximum MRS2179 mean value and 4.981 % of maximum MRS2179 mean value	0.8906 % of maximum MRS2179 mean value and 4.044 % of maximum MRS2179 mean value and 23.8581 % of maximum MRS2179 mean value and -4.504 % of maximum MRS2179 mean value and -0.009097 % of maximum MRS2179 mean value and -7.368 % of maximum MRS2179 mean value	-9.195 % of maximum MRS2179 mean value and -17.2152 % of maximum MRS2179 mean value and -1.434 % of maximum MRS2179 mean value and -4.1872 % of maximum MRS2179 mean value and -11.6872 % of maximum MRS2179 mean value and -13.2576 % of maximum MRS2179 mean value	-19.0202 % of maximum MRS2179 mean value and -26.9343 % of maximum MRS2179 mean value and -6.222 % of maximum MRS2179 mean value and 4.642 % of maximum MRS2179 mean value and -7.159 % of maximum MRS2179 mean value and -5.465 % of maximum MRS2179 mean value	-11.1827 % of maximum MRS2179 mean value and -20.1662 % of maximum MRS2179 mean value and -5.932 % of maximum MRS2179 mean value and 1.161 % of maximum MRS2179 mean value and -4.3372 % of maximum MRS2179 mean value and -8.802 % of maximum MRS2179 mean value	-9.413 % of maximum MRS2179 mean value and -16.1844 % of maximum MRS2179 mean value and -3.46 % of maximum MRS2179 mean value and -2.408 % of maximum MRS2179 mean value and -4.624 % of maximum MRS2179 mean value and -8.503 % of maximum MRS2179 mean value	26.4 µM	4.579 ± 0.1247	154.3 ± 13.86	behaved as inverse agonists
